According to US8741940B2, “Microbicidal composition” (Rohm and Haas Company, priority 2005, dated 2014):
Structures can show the parent of a compound that is named as a salt. Where two headings read alike, the source gives them in different places.

What was measured:
Assay type in all cases: cell-based
[1] = test system: Escherichia coli (E. coli—ATCC #8739); assay: Synergy test, microtiter plate high resolution MIC assay, bacterium in M9GY medium; design: key to SI (synergy index): SI = Qa/QA + Qb/QB; >1 antagonism, lower SI = greater synergy; Qa (First Component A) / Qb (Second Component B): unit: ppm; conditions: for MIC: Escherichia coli
Experimental: (§1) When the sum of Qa/QA and Qb/QB is greater than one, antagonism is indicated. […] The lower the SI, the greater the synergy shown by that particular mixture. The minimum inhibitory concentration (MIC) of a microbicide is the lowest concentration tested under a specific set of conditions that prevents the growth of added microorganisms.
(§2) Synergy tests were conducted using standard microtiter plate assays with media designed for optimal growth of the test microorganism. Minimal salt medium supplemented with 0.2% glucose and 0.1% yeast extract (M9GY medium) was used for testing bacteria; Potato Dextrose Broth (PDB medium) was used for testing yeast and mold. In this method, a wide range of combinations of microbicides and other personal care raw materials was tested by conducting high resolution MIC assays in the presence of various concentrations of BBIT or MBIT. High resolution MICs were determined by adding varying amounts of microbicide to one column of a microtitre plate and doing subsequent […] dilutions using an automated liquid handling system to obtain a series of endpoints ranging from 2 ppm to 10,000 ppm active ingredient.
(§3) The bacteria were used at a concentration of about 5 ×10^6 bacteria per mL and the yeast and mold at 5×10^5 fungi per mL. These microorganisms are representative of natural contaminants in many consumer and industrial applications. […] (yeast and mold) or 30° C. (bacteria).
(§4) In each test, First Component (A) was BBIT and the Second Component (B) was the other commercial microbicide.
(§5) In each test, First Component (A) was MBIT and the Second Component (B) was the other commercial microbicide.

[2] = test system: Candida albicans (C. albicans—ATCC 10231); assay: Synergy test, microtiter plate high resolution MIC assay, yeast in PDB medium; design: key to SI (synergy index): SI = Qa/QA + Qb/QB; >1 antagonism, lower SI = greater synergy; Qb (Second Component B) / Qa (First Component A): unit: ppm; conditions: for MIC: Candida albicans
Experimental: as §1, §2, §3, §4, §5

[3] = test system: Aspergillus niger (A. niger—ATCC 16404); assay: Synergy test, microtiter plate high resolution MIC assay, mold in PDB medium; design: key to SI (synergy index): SI = Qa/QA + Qb/QB; >1 antagonism, lower SI = greater synergy; Qb (Second Component B) / Qa (First Component A): unit: ppm; conditions: for MIC: Aspergillus niger
Experimental: as §1, §2, §3, §4, §5

[4] = ATCC8739, E. coli 8739, M9GY, 24 hours, alone where Qa = 0, otherwise in the mixture, read-out: Qb (concentration of second component producing the end point, MIC)
[5] = ATCC16404, 168 h, A. niger 16404, PDB, 7 days, alone where Qa = 0, otherwise in the mixture, read-out: Qb (concentration of second component producing the end point, MIC)
[6] = C. albicans 10231, PDB, 24 hours
[7] = ATCC10231, C. albicans 10231, PDB, 24 hours, alone where Qa = 0, otherwise in the mixture, read-out: Qb (concentration of second component producing the end point, MIC)
[8] = A=MBIT, B=Benzisothiazolinone (BIT), E. coli 8739 - M9GY, 24 hours
[9] = A=MBIT, B=Benzisothiazolinone (BIT), C. albicans 10231 - PDB, 48 hours
[10] = A=MBIT, B=Benzisothiazolinone (BIT), A. niger 16404 - PDB, 7 days
[11] = A=MBIT, B=2-bromo-2-nitro-propane-1,3-diol (BNPD), E. coli 8739 - M9GY, 24 hours
[12] = A=MBIT, B=2-bromo-2-nitro-propane-1,3-diol (BNPD), C. albicans 10231 - PDB, 24 hours
[13] = ATCC10231, C. albicans 10231, PDB, 48 hours, 25° C., read-out: MIC of the component acting alone (QA / QB)
[14] = A=MBIT, B=2-bromo-2-nitro-propane-1,3-diol (BNPD), A. niger 16404 - PDB, 4 days
[15] = ATCC16404, 168 h, A. niger 16404, PDB, 7 days, 25° C., read-out: MIC of the component acting alone (QA / QB)
[16] = A=MBIT, B=Benzyl alcohol, E. coli 8739 - M9GY, 24 hours
[17] = ATCC8739, E. coli 8739, M9GY, 24 hours, 30° C., read-out: MIC of the component acting alone (QA / QB)
[18] = A=MBIT, B=Benzyl alcohol, C. albicans 10231 - PDB, 48 hours
[19] = A=MBIT, B=Benzyl alcohol, A. niger 16404 - PDB, 4 days
[20] = ATCC8739, 24 h, read-out: Qb (concentration of second component producing the end point, MIC)
[21] = ATCC16404, 72 h, read-out: Qb (concentration of second component producing the end point, MIC)

## O=C([O-])CC(O)(CC(=O)[O-])C(=O)[O-].[Na+].[Na+].[Na+] [Sodium citrate]
[1]
  Qb (Second Component B): 20000
  Qb (concentration of second component producing the end point, MIC): 20000 ppm
[2]
  Qb (Second Component B): 10000
  Qb (concentration of second component producing the end point, MIC): 10000 ppm
[3]
  Qb (Second Component B): 10000
  Qb (concentration of second component producing the end point, MIC): 10000 ppm

## COC(=O)c1ccc(O)cc1 [Methylparaben]
[1]; E. coli 8739, M9GY, 24 hours
  SI (synergy index): 1.00
[1]; E. coli 8739 - M9GY, 72 hours, BBIT with Methylparaben
  SI: 1.00
[1]; [4]
  MIC: 2000 µg/mL
[2]; C. albicans 10231, PDB, 48 hours
  SI (synergy index): 1.00
[2]; C. albicans 10231 - PDB, 24 hours, BBIT with Methylparaben
  SI: 1.00
[2]; ATCC10231, C. albicans 10231, PDB, 48 hours, alone where Qa = 0, otherwise in the mixture, read-out: Qb (concentration of second component producing the end point, MIC)
  MIC: 2000 µg/mL
[3]; A. niger 16404, PDB, 7 days
  SI (synergy index): 1.00
[3]; A. niger 16404 - PDB, 3 days, BBIT with Methylparaben
  SI: 1.00
[3]; [5]
  MIC: 800 µg/mL

## CC(=O)C1C(=O)C=C(C)OC1=O (stereo not drawn) [Dehydroacetic acid, sodium salt]
[1]; E. coli 8739, M9GY, 24 hours
  SI (synergy index): 1.00
[1]; [4]
  MIC: 20000 µg/mL
[2]; [6]
  SI (synergy index): 1.00
[2]; [7]
  MIC: 40 µg/mL
[3]; A. niger 16404, PDB, 7 days
  SI (synergy index): 1.00
[3]; [5]
  MIC: 200 µg/mL

## O=c1[nH]sc2ccccc12 [Benzisothiazolinone, 1,2-benzisothiazolin-3-one]
[1]; [8]
  Qb (Second Component B): 20
  SI (synergy index): 1.00
[1]; E. coli 8739, M9GY, 72 hours, 30° C.
  MIC of the component acting alone (QA / QB): 8 ppm
[2]; [9]
  Qb (Second Component B): 30
  SI (synergy index): 1.00
[2]; C. albicans 10231, PDB, 48 hours, 25° C.
  MIC of the component acting alone (QA / QB): 30 ppm
[3]; A. niger 16404, PDB, 7 days, 25° C.
  MIC of the component acting alone (QA / QB): 100 ppm
[3]; [10]
  Qb (Second Component B): 300
  SI (synergy index): 1.00

## O=[N+]([O-])C(Br)(CO)CO [BNPD, 2-bromo-2-nitro-propane-1,3-diol]
[1]; [11]
  Qb (Second Component B): 8
  SI (synergy index): 1.00
[1]; ATCC8739, E. coli 8739, M9GY, 48 hours, 30° C., read-out: MIC of the component acting alone (QA / QB)
  MIC: 10 µg/mL
[2]; [12]
  Qb (Second Component B): 1000
  SI (synergy index): 1.00
[2]; [13]
  MIC: 2000 µg/mL
[3]; [14]
  Qb (Second Component B): 2000
  SI (synergy index): 1.00
[3]; [15]
  MIC: 2000 µg/mL

## CC(=O)C1C(=O)C=C(C)OC1=O (stereo not drawn) [dehydroacetic acid, sodium salt]
[1]; E. coli 8739 - M9GY, 24 hours, BBIT with SDHA
  SI: 1.00
[2]; C. albicans 10231 - PDB, 24 hours, BBIT with SDHA
  SI: 1.00
[3]; A. niger 16404 - PDB, 7 days, BBIT with SDHA
  SI: 1.00

## OCc1ccccc1 [Benzyl alcohol]
[1]; [16]
  Qb (Second Component B): 5000
  SI (synergy index): 1.00
[1]; [17]
  MIC: 2000 µg/mL
[2]; [18]
  Qb (Second Component B): 4000
  SI (synergy index): 1.00
[2]; [13]
  MIC: 3000 µg/mL
[3]; [19]
  Qb (Second Component B): 6000
  SI (synergy index): 1.00
[3]; ATCC16404, 72 h, A. niger 16404, PDB, 3 days, 25° C., read-out: MIC of the component acting alone (QA / QB)
  MIC: 5000 µg/mL

## Zinc pyrithione
[1]
  Qb (concentration of Second Component B = Zinc pyrithione at the end point): 2
  SI (synergy index): 1.00
[2]
  Qb (concentration of Second Component B = Zinc pyrithione at the end point): 30
  SI (synergy index): 1.00
[3]
  Qb (concentration of Second Component B = Zinc pyrithione at the end point): 20
  SI (synergy index): 1.00

## O=C(O)CN(CCN(CC(=O)O)CC(=O)O)CC(=O)O [Ethylenediamine tetraacetic acid]
[1]
  SI (synergy index): 1.00
[1]; [20]
  MIC: 40000 µg/mL
[2]
  SI (synergy index): 1.00
[2]; ATCC10231, 48 h, read-out: Qb (concentration of second component producing the end point, MIC)
  MIC: 1000 µg/mL
[3]
  SI (synergy index): 1.00
[3]; [21]
  MIC: 1600 µg/mL

## CC(C)(C)CC(C)(C)c1ccc(OCCOCC[N+](C)(C)Cc2ccccc2)cc1 [Benzethonium chloride]
[1]; A=MBIT, B=Benzethonium chloride (Hyamine 1622), E. coli 8739 - M9GY, 24 hours
  Qb (Second Component B): 20
[2]; A=MBIT, B=Benzethonium chloride (Hyamine 1622), C. albicans 10231 - PDB, 24 hours
  Qb (Second Component B): 4
[3]; A=MBIT, B=Benzethonium chloride (Hyamine 1622), A. niger 16404 - PDB, 4 days
  Qb (Second Component B): 10

## cocamidopropyl PG-dimonium chloride phosphate
[1]; E. coli 8739, M9GY, 48 hours
  SI (synergy index): 1.00
[1]; E. coli 8739, M9GY, 48 hours, alone where Qa = 0, otherwise in the mixture
  Qb (concentration of second component producing the end point, MIC): 100 ppm
[1]; E. coli 8739 - M9GY, 72 hours, BBIT with Phospholipid PTC
  SI: 1.00
[2]; [6]
  SI (synergy index): 1.00
[2]; C. albicans 10231, PDB, 24 hours, alone where Qa = 0, otherwise in the mixture
  Qb (concentration of second component producing the end point, MIC): 1000 ppm
[2]; C. albicans 10231 - PDB, 24 hours, BBIT with Phospholipid PTC
  SI: 1.00
[3]; A. niger 16404, PDB, 4 days
  SI (synergy index): 1.00
[3]; A. niger 16404, PDB, 4 days, alone where Qa = 0, otherwise in the mixture
  Qb (concentration of second component producing the end point, MIC): 1000 ppm
[3]; A. niger 16404 - PDB, 3 days, BBIT with Phospholipid PTC
  SI: 1.00

## OCCCCO [Butylene glycol]
[1]
  Qb (Second Component B): 20000
  SI (synergy index): 1.00
[1]; ATCC8739, 48 h, read-out: MIC of the component acting alone (QA / QB)
  MIC: 20000 µg/mL
[2]
  Qb (Second Component B): 20000
  SI (synergy index): 1.00
[2]; ATCC10231, 24 h, read-out: MIC of the component acting alone (QA / QB)
  MIC: 20000 µg/mL
[3]
  Qb (Second Component B): 10000
  SI (synergy index): 1.00
[3]; ATCC16404, 72 h, read-out: MIC of the component acting alone (QA / QB)
  MIC: 10000 µg/mL

## ClC=CC[N+]12CN3CN(CN(C3)C1)C2.[Cl-] [Quaternium-15, 1-(3-chloroallyl)-3,5,7-triaza-1-azoniaadamantane chloride]
[1]; E. coli 8739, M9GY, 24 hours
  SI (synergy index): 1.00
[1]; E. coli 8739 - M9GY, 72 hours, BBIT with Quaternium-15
  SI: 1.00
[1]; [20]
  MIC: 50 µg/mL
[2]; [6]
  SI (synergy index): 1.00
[2]; C. albicans 10231 - PDB, 24 hours, BBIT with Quaternium-15
  SI: 1.00
[2]; ATCC10231, 24 h, read-out: Qb (concentration of second component producing the end point, MIC)
  MIC: 500 µg/mL
[3]; A. niger 16404, PDB, 3 days
  SI (synergy index): 1.00
[3]; A. niger 16404 - PDB, 4 days, BBIT with Quaternium-15
  SI: 1.00
[3]; [21]
  MIC: 3000 µg/mL

## CCOC(=O)c1ccc(O)cc1 [Ethylparaben]
[1]; E. coli 8739, M9GY, 24 hours
  SI (synergy index): 1.00
[1]; [17]
  MIC: 2000 µg/mL
[1]; [4]
  MIC: 2000 µg/mL
[2]; [6]
  SI (synergy index): 1.00
[2]; ATCC10231, C. albicans 10231, PDB, 24 hours, 25° C., read-out: MIC of the component acting alone (QA / QB)
  MIC: 800 µg/mL
[2]; [7]
  MIC: 2000 µg/mL
[3]; A. niger 16404, PDB, 7 days
  SI (synergy index): 1.00
[3]; [15]
  MIC: 800 µg/mL
[3]; [5]
  MIC: 800 µg/mL
